Assay results published in ChEMBL document CHEMBL1151480, “Endiandric Acid Analogues from the Roots of Beilschmiedia erythrophloia” (2009).
≈ marks a conversion by molar mass, not a printed value. Calls of active or inactive are those of the source. No cut-off for these calls is given here.

Legend:
[1] = test system: Mycobacterium tuberculosis; assay: Antitubercular activity against Mycobacterium tuberculosis H37Rv after 2 weeks by proportion method; type: functional; settings: 336 h
P388 = assay: Growth inhibition of mouse P388 cells; type: functional, cell-based

Which MIC [1] does the source give for `COC(=O)[C@@H]1C=C[C@@H]2C[C@H]3[C@H](CCCCCCCc4ccccc4)[C@H]4C=C[C@@H]1[C@@H]2[C@H]43` [ERYTHROPHLOIN C] here?
The MIC was 50 µg/mL (≈ 124 µM).

With `CC[C@@H](CO)NCCN[C@@H](CC)CO` [ETHAMBUTOL] as the compound, how does the MIC [1] read?
Its MIC is 6.25 µg/mL (≈ 30.6 µM).

How did the MIC [1] turn out when `C=C1CC[C@H]2O[C@]2(C)[C@H](O)C[C@@H]2[C@@H]1CC2(C)C` [SUBEROSOL B] was run?
The MIC was 28.9 µg/mL (≈ 122 µM).

And the “growth inhibition (GI)” value (P388)?
The value was “Active”.
